Data reported in patent US11701379B2, “In vitro and in vivo intracellular delivery of siRNA via self-assembled nanopieces” (Rhode Island Hospital, priority 2018, dated 2023).

System: MMP-13 mRNA
Experiment: MMP-13 molecular beacon validation in chondrocytes with/without IL-1β
Assay type: cell-based, mouse
Conditions: realtime rtPCR
Experimental: Fluorescence labeled GAPDH molecular beacon and fluorescence labeled MMP-13 molecular beacon or fluorescence labeled scrambled molecular beacon delivered with Nanopieces was added into chondrocytes under standard cell culture conditions or stimulated with 10 ng/mL IL-1β (FIG. 29).
Using an established method (Tyagi et al Nat. Biotech, 1998, 16:49-53), MBs were designed to target mouse MMP-13 or GAPDH mRNA with a fluorophore/quench pair. Scramble sequence MB (Scramble) was verified to not bind with any mouse mRNA via BLAST. In vitro delivery and validation: MBs were delivered into chondrocytes by Nanopieces. Specifically, after stimulation with IL-1β for 24 hours, chondrocytes were co-transfected GAPDH and scramble MBs or GAPDH and MMP-13 MBs via Nanopieces. Real time RT-PCR and fluorescence microscopy were used to verify the stimulation of MMP-13 expression and the successful fluorescence signal resulted from MMP-13 MB.
To test the efficacy of mRNA detection in chondrocytes using MBs delivered by Nanopieces, primary mouse chondrocytes were transfected with MBs either with or without IL-1β treatment. Before IL-1β treatment, the housekeeping GAPDH MB was detected while the MMP-13 MB was not (FIG. 29, left panels). In contrast, after IL-1β treatment, both GAPDH MB and MMP-13 MB were detected, indicating the induction of MMP-13 mRNA levels by IL-1β (FIG. 29, right panels). […]

Substance: IL-1β: cytokine used to stimulate chondrocytes
- up-regulation of MMP-13 mRNA level: about 10 times
